In ChEMBL document CHEMBL1201862, “PubChem BioAssay data set” (2004):
Calls of active or inactive are those of the source.

What was measured:
[1] = biological target: T1, Short transient receptor potential channel 4 (Mus musculus, UniProt Q9QUQ5); assay: mouse TRPC4 channel activators, dose response, cell-based, HEK293 TRPC4/mu-opioid, Fluo-4 calcium (AID 434937); format: functional
T1 sequence (Q9QUQ5 whole entry): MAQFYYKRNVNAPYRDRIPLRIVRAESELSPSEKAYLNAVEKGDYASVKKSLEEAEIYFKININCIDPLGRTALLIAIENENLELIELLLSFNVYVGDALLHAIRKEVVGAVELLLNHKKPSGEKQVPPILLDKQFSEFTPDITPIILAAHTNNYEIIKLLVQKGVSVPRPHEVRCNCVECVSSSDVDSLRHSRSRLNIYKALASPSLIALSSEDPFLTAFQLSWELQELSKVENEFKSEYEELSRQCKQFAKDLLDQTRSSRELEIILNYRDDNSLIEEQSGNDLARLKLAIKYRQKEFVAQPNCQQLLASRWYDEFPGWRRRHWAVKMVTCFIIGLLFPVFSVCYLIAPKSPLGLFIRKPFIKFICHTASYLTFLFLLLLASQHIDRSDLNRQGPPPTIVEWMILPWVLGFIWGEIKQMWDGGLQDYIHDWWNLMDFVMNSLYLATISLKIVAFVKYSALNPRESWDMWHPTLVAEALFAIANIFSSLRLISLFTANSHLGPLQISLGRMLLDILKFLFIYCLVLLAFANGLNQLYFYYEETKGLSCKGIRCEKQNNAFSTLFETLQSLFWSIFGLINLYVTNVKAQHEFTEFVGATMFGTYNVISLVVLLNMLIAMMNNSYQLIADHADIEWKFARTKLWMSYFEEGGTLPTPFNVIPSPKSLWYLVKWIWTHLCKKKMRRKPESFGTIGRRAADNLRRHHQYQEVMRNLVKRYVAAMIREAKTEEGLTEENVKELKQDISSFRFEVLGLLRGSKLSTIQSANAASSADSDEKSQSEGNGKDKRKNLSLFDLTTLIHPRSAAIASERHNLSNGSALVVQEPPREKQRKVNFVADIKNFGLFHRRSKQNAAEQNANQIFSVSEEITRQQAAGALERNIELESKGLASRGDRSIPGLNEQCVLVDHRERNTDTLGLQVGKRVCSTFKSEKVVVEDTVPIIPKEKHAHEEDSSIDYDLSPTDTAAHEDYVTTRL

[2] = test system: HEK293; assay: NOD2 signaling inhibitors in MDP-stimulated cells, cell-based, uHTS, luminescence (AID 2001); format: functional; conditions: Homo sapiens
[3] = test system: HEK293; assay: cells; format: functional, cell-based; conditions: Homo sapiens
[4] = test system: HEK293; assay: NOD1 signaling inhibitors, primary screen, cell-based, luminescence, uHTS (AID 1578); format: functional; conditions: Homo sapiens
[5] = test system: HEK293; assay: cells; format: functional, cell-based; conditions: Homo sapiens; remark: listed apart in the source
[6] = HepG2 cell cytotoxicity, dose response, cytotoxicity control for Shn3 inhibitor project, CellTiter-Glo, cherry-picked (AID 624134); format: functional, cell-based
[7] = Shn3 3'UTR reporter inhibitors, dose response, cell-based, Clone20 osteoblasts, firefly luciferase, cherry-picked (AID 624132); format: functional;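 further: firefly luciferase luminescence from reporter carrying the Shn3 3'UTR in osteoblasts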
[8] = inhibitors of clade B AD8 Env fusion, dose response, cell-based, cherry-pick (AID 652062); format: functional;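 further: luciferase signal from cell-cell fusion driven by HIV-1 clade B AD8 Env; potency is for inhibitors of fusion seen as a drop in luminescence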
[9] = inhibitors of HIV Env-driven cell fusion, dose response, cherry-pick (AID 652057); format: functional, cell-based
[10] = biological target: Glucose-6-phosphate 1-dehydrogenase (Homo sapiens, UniProt P11413); assay: human G6PD enzyme inhibitors, dose response, selectivity assay for P. falciparum G6PD inhibitor project, biochemical, fluorescence (AID 504792); format: functional
[11] = biological target: Protein-tyrosine kinase 2-beta (Homo sapiens, UniProt Q14289);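 further: potency of inhibitors of PYK2 kinase phosphorylation of poly-GT substrate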
[12] = test system: H9c2; assay: cells; format: functional, cell-based; conditions: Rattus norvegicus, H9c2, Myocardium;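 further: confirmatory concentration-response retest of ultra-high-throughput screening hits for modulation of myocardial damage; cell death induced by hydrogen peroxide oxidative stress; compound pretreatment for 60 min then peroxide exposure for 2 h; potency is for protecting the cells against peroxide damage rather than for killing them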
[13] = THP-1 cell cytotoxicity, dose response, cytotoxicity control for Vif-APOBEC3G degradation inhibitor project, THP-1 cells (AID 1117359); format: functional; conditions: Human immunodeficiency virus 1, THP-1
[14] = biological target: T2, Replicative DNA helicase DnaB (Mycobacterium tuberculosis, UniProt P9WMR3); assay: DnaB intein splicing inhibitors, dose response, biochemical, cell-free fluorescence (AID 449749); format: functional
T2 sequence (P9WMR3 whole entry): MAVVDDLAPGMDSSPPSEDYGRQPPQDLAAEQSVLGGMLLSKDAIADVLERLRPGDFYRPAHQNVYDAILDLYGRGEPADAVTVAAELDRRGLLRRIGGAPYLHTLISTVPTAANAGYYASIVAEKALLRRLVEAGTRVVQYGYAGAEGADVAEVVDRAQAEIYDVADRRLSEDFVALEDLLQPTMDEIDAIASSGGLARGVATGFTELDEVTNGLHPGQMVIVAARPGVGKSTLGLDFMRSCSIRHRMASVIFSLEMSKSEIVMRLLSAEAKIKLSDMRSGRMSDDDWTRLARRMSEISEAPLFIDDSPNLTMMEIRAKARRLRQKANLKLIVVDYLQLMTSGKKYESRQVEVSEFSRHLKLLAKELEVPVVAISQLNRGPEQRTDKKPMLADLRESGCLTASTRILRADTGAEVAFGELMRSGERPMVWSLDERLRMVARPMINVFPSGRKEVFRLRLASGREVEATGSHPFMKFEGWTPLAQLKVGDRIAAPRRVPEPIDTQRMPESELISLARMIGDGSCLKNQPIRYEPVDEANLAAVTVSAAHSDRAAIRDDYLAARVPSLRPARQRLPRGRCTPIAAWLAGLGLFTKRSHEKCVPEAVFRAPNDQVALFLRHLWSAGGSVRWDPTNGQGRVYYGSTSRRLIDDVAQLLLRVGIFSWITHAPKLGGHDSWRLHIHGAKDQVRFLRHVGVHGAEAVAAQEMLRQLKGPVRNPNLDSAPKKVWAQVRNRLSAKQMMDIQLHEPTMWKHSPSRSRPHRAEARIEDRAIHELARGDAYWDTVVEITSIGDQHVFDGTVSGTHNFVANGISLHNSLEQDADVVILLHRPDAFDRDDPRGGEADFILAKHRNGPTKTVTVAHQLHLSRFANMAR

[15] = biological target: T3, Protein RecA (Mycobacterium tuberculosis, UniProt P9WHJ3); assay: Fluorescence Cell-Free Homogeneous Dose Retest to Identify Inhibitors of RecA-Intein Splicing Activity. [Related pubchem assays (depositor defined):AID2097, AID2223, AID489010, AID492950]; format: functional
T3 sequence (P9WHJ3 whole entry): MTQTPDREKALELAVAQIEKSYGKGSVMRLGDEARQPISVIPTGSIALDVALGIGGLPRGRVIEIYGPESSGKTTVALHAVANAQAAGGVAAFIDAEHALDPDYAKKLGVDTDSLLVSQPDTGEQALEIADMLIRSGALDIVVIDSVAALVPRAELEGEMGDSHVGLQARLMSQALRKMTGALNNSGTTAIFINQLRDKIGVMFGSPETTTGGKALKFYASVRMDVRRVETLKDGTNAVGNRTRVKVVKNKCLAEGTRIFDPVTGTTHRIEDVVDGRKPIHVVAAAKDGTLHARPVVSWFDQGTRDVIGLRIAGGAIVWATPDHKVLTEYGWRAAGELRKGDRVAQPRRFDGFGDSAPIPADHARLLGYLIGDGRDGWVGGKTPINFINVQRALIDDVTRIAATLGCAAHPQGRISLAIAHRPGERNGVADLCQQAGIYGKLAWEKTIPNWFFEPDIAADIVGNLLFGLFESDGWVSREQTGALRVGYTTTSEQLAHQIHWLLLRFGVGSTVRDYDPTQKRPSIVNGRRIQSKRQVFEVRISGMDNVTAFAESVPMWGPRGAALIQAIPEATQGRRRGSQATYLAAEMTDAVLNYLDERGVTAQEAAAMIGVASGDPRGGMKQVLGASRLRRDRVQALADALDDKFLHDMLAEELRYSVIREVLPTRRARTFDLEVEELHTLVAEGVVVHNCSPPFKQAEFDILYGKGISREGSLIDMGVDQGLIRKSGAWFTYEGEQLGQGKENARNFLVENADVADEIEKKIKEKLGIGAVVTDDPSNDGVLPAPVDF

[16] = biological target: Cytochrome P450 2C9 (Homo sapiens, UniProt P11712)
[17] = biological target: T4, High affinity choline transporter 1 (Homo sapiens, UniProt Q9GZV3); assay: CHT inhibitors, dose response, cell-based, 5-point CRC, membrane potential dye (AID 504840); format: functional
T4 sequence (Q9GZV3 whole entry): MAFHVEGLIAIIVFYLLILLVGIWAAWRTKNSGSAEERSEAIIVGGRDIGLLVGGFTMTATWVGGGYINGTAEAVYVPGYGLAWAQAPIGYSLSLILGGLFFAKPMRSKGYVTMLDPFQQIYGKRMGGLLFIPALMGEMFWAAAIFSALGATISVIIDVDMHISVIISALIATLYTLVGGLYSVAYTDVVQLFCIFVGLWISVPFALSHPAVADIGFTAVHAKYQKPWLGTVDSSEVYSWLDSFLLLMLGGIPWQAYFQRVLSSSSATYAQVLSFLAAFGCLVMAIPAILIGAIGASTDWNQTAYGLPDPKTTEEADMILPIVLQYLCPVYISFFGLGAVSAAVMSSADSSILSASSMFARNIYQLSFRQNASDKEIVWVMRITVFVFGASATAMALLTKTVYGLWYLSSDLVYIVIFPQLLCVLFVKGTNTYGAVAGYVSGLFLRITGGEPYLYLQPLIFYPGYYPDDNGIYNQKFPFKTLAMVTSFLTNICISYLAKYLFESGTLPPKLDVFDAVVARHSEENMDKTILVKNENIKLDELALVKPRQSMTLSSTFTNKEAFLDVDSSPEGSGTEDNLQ

[18] = biological target: Large T antigen (Simian virus 40, UniProt P03070); format: functional, Betapolyomavirus macacae;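 further: Confirmatory-stage PubChem screen for compounds that inhibit SV40 T antigen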
[19] = MC4R antagonists, dose response, counter-screen for LGR2 antagonist project, cell-based, plate reader, cherry pick (AID 743444); format: functional;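 further: transfected HEK 293 cells stimulated with alpha-MSH peptide; potency of inhibitors of the alpha-MSH evoked signal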
[20] = LGR2 antagonists, dose response, cell-based, HEK293, CRE-luciferase reporter, cherry pick, set 2 (AID 743343); format: functional;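 further: transfected cells were stimulated with diluted bursicon conditioned medium after compound addition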
[21] = inhibitors of firefly luciferase expression or activity, dose response, H4 neuroglioma cells, luminescence (AID 1990); format: functional, cell-based
[22] = Luminescence Cell-Based Dose Response HTS to Identify Inhibitors of 5'UTR Stem-Loop Driven Prion Protein mRNA Translation in H4 Neuroglioblastoma Cells. [Related pubchem assays: 1827 (Project Summary), 1813 (Primary HTS)]; format: functional
[23] = inhibitors of SNCA 5'UTR-driven reporter translation, confirmation, H4 neuroglioma cells, luminescence (AID 1988); format: functional, cell-based

Sequence of Protein-tyrosine kinase 2-beta (Q14289 whole entry): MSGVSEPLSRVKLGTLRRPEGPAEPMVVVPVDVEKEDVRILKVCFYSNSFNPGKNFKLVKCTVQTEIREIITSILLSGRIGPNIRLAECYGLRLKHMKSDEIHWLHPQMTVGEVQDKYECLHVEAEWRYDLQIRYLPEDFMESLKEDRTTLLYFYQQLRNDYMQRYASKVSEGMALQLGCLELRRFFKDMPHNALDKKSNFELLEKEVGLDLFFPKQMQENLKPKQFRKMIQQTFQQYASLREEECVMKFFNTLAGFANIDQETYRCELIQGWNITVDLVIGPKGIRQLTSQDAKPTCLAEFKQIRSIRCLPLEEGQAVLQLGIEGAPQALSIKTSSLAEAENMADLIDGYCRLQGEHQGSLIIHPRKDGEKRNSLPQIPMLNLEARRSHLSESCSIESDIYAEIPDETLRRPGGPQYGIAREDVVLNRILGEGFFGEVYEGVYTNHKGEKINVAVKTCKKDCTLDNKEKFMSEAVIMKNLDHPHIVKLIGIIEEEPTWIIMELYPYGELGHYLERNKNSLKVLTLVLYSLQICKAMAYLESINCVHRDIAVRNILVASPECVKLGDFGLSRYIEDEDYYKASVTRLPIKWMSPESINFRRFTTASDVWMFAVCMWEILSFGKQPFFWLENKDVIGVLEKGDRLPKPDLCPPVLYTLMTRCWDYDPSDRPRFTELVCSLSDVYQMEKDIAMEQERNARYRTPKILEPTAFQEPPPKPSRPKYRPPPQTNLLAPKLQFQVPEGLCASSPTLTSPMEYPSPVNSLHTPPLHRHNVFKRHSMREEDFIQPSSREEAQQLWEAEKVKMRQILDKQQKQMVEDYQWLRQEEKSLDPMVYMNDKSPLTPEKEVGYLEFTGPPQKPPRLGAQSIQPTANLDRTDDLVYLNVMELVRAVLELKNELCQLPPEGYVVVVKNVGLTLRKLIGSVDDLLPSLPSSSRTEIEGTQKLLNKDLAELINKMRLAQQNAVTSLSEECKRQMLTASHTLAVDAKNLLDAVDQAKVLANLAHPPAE
Sequence of Glucose-6-phosphate 1-dehydrogenase (P11413 whole entry): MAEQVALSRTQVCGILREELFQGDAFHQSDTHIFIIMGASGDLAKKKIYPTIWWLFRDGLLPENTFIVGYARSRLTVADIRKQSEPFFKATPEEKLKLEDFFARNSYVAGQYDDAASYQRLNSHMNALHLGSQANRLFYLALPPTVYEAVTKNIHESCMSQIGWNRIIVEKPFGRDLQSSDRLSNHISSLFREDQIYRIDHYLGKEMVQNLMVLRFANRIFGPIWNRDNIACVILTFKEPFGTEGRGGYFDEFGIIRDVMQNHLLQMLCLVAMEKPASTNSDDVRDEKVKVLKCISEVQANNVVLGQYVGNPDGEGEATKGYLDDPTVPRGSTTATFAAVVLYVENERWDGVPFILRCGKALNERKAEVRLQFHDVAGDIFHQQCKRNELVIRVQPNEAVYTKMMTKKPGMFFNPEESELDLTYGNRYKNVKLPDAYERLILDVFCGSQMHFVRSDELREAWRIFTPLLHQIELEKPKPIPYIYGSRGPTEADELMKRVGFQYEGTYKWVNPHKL
Sequence of Large T antigen (P03070 whole entry): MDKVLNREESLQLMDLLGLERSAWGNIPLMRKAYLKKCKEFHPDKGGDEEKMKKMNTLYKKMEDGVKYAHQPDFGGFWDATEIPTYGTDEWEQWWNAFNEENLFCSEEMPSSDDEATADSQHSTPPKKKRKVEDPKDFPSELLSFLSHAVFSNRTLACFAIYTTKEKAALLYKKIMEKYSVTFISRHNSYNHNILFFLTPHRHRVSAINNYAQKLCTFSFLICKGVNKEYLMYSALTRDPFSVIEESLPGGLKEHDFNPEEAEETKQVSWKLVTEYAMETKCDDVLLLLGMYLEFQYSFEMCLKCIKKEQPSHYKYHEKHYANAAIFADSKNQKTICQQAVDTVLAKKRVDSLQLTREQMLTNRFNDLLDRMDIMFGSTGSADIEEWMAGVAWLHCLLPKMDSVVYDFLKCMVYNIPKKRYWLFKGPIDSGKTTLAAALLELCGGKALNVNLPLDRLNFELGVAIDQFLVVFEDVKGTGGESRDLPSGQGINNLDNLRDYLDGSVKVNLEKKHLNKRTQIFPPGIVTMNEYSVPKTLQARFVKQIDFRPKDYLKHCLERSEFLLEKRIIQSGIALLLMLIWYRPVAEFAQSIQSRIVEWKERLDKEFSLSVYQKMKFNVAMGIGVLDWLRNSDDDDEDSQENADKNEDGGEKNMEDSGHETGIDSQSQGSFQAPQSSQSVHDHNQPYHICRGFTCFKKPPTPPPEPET
Sequence of Cytochrome P450 2C9 (P11712 whole entry): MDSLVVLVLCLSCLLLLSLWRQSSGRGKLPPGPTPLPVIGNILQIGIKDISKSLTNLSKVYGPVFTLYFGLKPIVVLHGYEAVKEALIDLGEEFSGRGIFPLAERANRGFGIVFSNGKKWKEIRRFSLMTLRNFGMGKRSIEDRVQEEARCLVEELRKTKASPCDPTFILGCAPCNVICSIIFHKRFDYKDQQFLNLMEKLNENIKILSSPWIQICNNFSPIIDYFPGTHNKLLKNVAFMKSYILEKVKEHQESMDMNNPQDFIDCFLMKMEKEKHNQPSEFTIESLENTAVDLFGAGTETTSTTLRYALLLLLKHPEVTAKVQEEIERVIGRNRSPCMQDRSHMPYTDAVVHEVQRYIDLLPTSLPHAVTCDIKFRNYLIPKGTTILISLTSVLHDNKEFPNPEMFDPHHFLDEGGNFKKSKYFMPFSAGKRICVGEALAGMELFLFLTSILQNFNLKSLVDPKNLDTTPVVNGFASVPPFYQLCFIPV

CCn1c(N2CCN(Cc3ccc([N+](=O)[O-])cc3)CC2)nc2ccccc21
EC50 [1]: 0.133 µM (active)

O=C(c1ccc2c3c(cccc13)CC2)C1CCCN(CC2CC2)C1 (stereo unspecified)
EC50 [1]: 0.841 µM (active)

CSc1cccc(NS(=O)(=O)c2ccc3c(c2)CCN3C(C)=O)c1
IC50 [2]: 7.07 µM (active) | IC50 [3]: 10.8 µM (active) | EC50 [4]: 2.42 µM (active) | IC50 [5]: > 20 µM (inactive) | AC50 [6]: 2.79 µM (active) | AC50 [7]: 1.49 µM (active)

N#Cc1ccc(CN2CCN(C(=O)CNC(=O)Cc3cccc4ccccc34)CC2)cc1
AC50 [8]: 10.3 µM (active) | AC50 [9]: 57.1 µM (active)

COc1cccc(C2(c3cccc(OC)c3)CC2C(=O)Nc2ccc(F)cc2)c1 (stereo unspecified)
IC50 [10]: > 80 µM (inactive)

O=[N+]([O-])c1ccc(N2CCNCC2)c(Cl)c1
EC50 [1]: 0.596 µM (active)

COc1cc(C2Nc3ccc4ncccc4c3C3=C2C(=O)CC(C)(C)C3)cc(OC)c1O (stereo unspecified)
IC50 [11]: 16.4 µM (not active)

CC1(C)CC2CC(C)(CN2C(=O)COC(=O)c2nnc(O)c3ccccc23)C1 (stereo unspecified)
IC50 [12]: 10.7 µM (active)

CC(C)CC(NC(=O)CCl)c1ccccc1 (stereo unspecified)
CC50 [13]: > 40 µM (active) | AC50 [14]: 320 µM (active) | EC50 [15]: 4.29 µM (active)

COc1nnc(-c2ccc(N3CCCCC3)c(NC(C)=O)c2)c2ccccc12
IC50 [11]: > 69.5 µM (not active)

CN(C)c1ccc(NC(=S)N2CCN(c3ncc(C(F)(F)F)cc3Cl)CC2)cc1
EC50 [1]: 2.66 µM (active)

Cc1ccc(C(=O)N/C(=C/C=C/c2ccccc2)C(=O)NCc2ccco2)cc1
AC50 [16]: 10 µM (inconclusive) | IC50 [17]: 17.4 µM (active)

Cc1ccc2c(c1)c(CC(=O)Nc1ccc(C)c(F)c1)c(C(=O)O)n2C
IC50 [17]: 12.6 µM (active)

COc1ccc2c(c1OC)C(=O)N1c3ccccc3C(=O)N(c3ccccc3)C21 (stereo unspecified)
IC50 [12]: > 79 µM (inactive)

C=CCc1c(C)nc(S)c(C#N)c1C
IC50 [10]: > 80 µM (inactive)

Cc1nc(C)c(-c2ccc(SCC(=O)Nc3cccc(Cl)c3)nn2)s1
IC50 [2]: 4.58 µM (active) | IC50 [3]: 4.18 µM (active) | EC50 [4]: > 20 µM (inactive) | IC50 [5]: > 20 µM (inactive)

Cc1cc2cc3c(N)[nH]nc3nc2cc1C
IC50 [11]: > 69.5 µM (not active) | IC50 [18]: 30.3 µM (active)

CCC(=O)N1CCc2cc(Br)cc(S(=O)(=O)NCCCN(CC)Cc3ccccc3)c21
EC50 [1]: 0.0133 µM (active)

CCOC(=O)c1cccc(C2=C(CNC(=O)c3cccnc3)[C@H]3CC[C@@H](C2)N3Cc2ccccc2)c1
IC50 [12]: 35.3 µM (inactive)

COc1ccc(NS(=O)(=O)c2ccc(N/N=C(\C)c3ccncc3)c([N+](=O)[O-])c2)cc1
IC50 [2]: 2.11 µM (active) | IC50 [3]: 3.9 µM (active) | EC50 [4]: 4.33 µM (active) | IC50 [5]: 17.8 µM (active)

COCCCNc1ccn2nc(-c3ccccc3)cc2n1
AC50 [19]: 6.82 µM (active) | AC50 [20]: 7.19 µM (active)

C[C@@H]1CN([C@@H](C)CO)C(=O)c2cccc(NS(=O)(=O)c3cccs3)c2O[C@@H]1CN(C)Cc1ccc(C(F)(F)F)cc1
AC50 [8]: 16.7 µM (active) | AC50 [9]: 2.04 µM (active)

Cc1ccc(C(=O)NC2CCCCC2)cc1S(=O)(=O)N1CCCC1
IC50 [17]: 1.26 µM (active)

O=C(CNc1ccc2c(c1)OCO2)N/N=C\c1cn(Cc2ccccc2)c2ccccc12
EC50 [21]: 9.09 µM (active) | EC50 [22]: 10.5 µM (active) | IC50 [10]: > 80 µM (inactive) | EC50 [23]: 6.5 µM (active)

O=c1[nH]c2ccccc2c2ccccc12
IC50 [12]: > 79 µM (inactive)
